Source: article PMC8588536, “Iridal-Type Triterpenoids Displaying Human Neutrophil Elastase Inhibition and Anti-Inflammatory Effects from Belamcanda chinensis” (Molecules, 2021)

Legend:
[1] = biological target: T1, Human neutrophil elastase (HNE) (Homo sapiens, UniProt P08246); test: Fluorescence quenching binding affinity to HNE; conditions: inhibitor 7.8–31.2 µM; for Kd: read-out: KA (association constant of the complex of enzyme and quencher) (converted); for KSV (Stern-Volmer quenching constant): λEx 260 nm, λEm 280–400 nm
T1 construct: purchased Sigma-Aldrich
T1 sequence (P08246 30-267): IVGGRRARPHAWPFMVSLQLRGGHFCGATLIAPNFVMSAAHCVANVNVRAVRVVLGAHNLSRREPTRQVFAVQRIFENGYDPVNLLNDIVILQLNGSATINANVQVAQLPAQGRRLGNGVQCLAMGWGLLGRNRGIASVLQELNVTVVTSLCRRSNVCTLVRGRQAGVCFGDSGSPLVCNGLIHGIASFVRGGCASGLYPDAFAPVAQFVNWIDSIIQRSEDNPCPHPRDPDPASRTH
Procedure: To measure fluorescence from the HNE enzyme, 10 μL of 0.01 unit/mL enzyme solution with 180 μL of Tris-HCl buffer (0.02 mM) was accurately added into the 96-well black immunoplates. Then, 10 μL of incremental concentrations (7.8–31.2 μΜ) of inhibitors were added into each well. All fluorescence spectra were measured from 280 to 400 nm with emission slits regulated to 2.0 nm, and the excitation wavelength was 260 nm. The Stern–Volmer quenching constant (KSV) was calculated using Equation (5). All experiments were conducted in triplicate, and the mean values were calculated. (5) […]=1+KSV[Q], where F0 and F are the fluorescence intensities in the absence and presence of quencher (Q). KSV is the Stern–Volmer quenching constant [LM^−1]. For static quenching, the correlation between the fluorescence intensity and the concentration of quencher for the series of reactions can be estimated by Equation (6). (6) log[(F0−F)/F]=logKA+nlog[Q]f.
F0 and F are the fluorescence intensities in the absence and presence of inhibitor; KA is the binding constant; n is the number of binding sites of the enzyme; Qf is the concentration of inhibitor.

[2] = system: iNOS mRNA in LPS-stimulated RAW264.7 cells; test: iNOS mRNA expression by RT-PCR; format: cell-based, mouse; conditions: 1 or 3 µg/mL, LPS 1 µg/mL; n = 5, p < 0.05
Procedure: (§1) Total RNA was isolated from cultured RAW264.7 cells using TRIzol reagent (Ambion®, Carlsbad, CA, USA) according to the manufacturer’s instructions. First strand cDNA was synthesized from the total RNA (3 μg) using oligo dT (DiaStar RT Kit, SolGent, Daejeon, Korea) and was used as a template for PCR amplification with G-Taq polymerase (Cosmogenetech, Seoul, Korea). The first-strand cDNA was quantified using a spectrophotometer (NanoDrop® ND-1000, NanoDrop Technologies, Wilmington, […], USA). The quantified cDNA was used as a template. PCR assay was performed with specific primers for inducible nitric oxide (iNOS), IL-1β, and TNF-α. The PCR steps included initial denaturation at 94 °C for 5 min, then 28 cycles at 94 °C for 30 s, 57 °C for 30 s, and 72 °C for 30 s, and a final extension step at 72 °C for 10 min. The amplified PCR products were separated in 1.5% agarose gel, and the gel was stained with ethidium bromide. The bands were visualized using the iBright^TM CL1500 imaging system (Thermo Scientific Fisher/Life Technologies Holdings Pte Ltd., Singapore). The DNA fragments were directly sequenced with the ABI PRISM® 3100-Avant Genetic Analyzer (Applied Biosystems, Carlsbad, CA, USA).

[3] = system: IL-1β mRNA in LPS-stimulated RAW264.7 cells; test: IL-1β mRNA expression by RT-PCR; format: cell-based, mouse; conditions: 1 or 3 µg/mL, n = 6, p < 0.05
Procedure: as §1

[4] = system: IL-1β in LPS-stimulated RAW264.7 cells; test: IL-1β concentration by ELISA; format: cell-based, mouse; conditions: 1 or 3 µg/mL 2 h prior to LPS 1 µg/mL for 16 h; n = 6, p < 0.05
Procedure: (§2) RAW264.7 cell (2 × 10^5 cells/well) were cultured in a 6-well plate for 24 h and treated with compounds (1 or 3 µg/mL) 2 h prior to LPS treatment, followed by LPS (1 µg/mL) for 16 h. The concentration of pro-inflammatory cytokines in the collected supernatant was quantified using an ELISA kit (R&D system, Minneapolis, MN, USA) according to the manufacturer’s instructions. Briefly, 50 μL of assay diluent, sample, and standards were added to the ELISA well plate, which were pre-coated with anti-mouse IL-1β and TNF-α antibody. The plates were then covered with adhesive strip, agitated, and incubated for 2 h at room temperature. The ELISA well-plate was washed five times with a wash buffer, then 100 μL of mouse IL-1β and TNF-α conjugates was added and incubated at room temperature for 2 h. The plate was washed five times, 100 μL of substrate solution was added to each well, and incubated for 30 min in the dark. The reaction was quenched by the addition of 100 μL stop solution to each well, and the absorbance was read 450 nm/570 nm with an ELISA reader (Molecular Devices, Sunnyvale, CA, USA).

[5] = system: TNF-α in LPS-stimulated RAW264.7 cells; test: TNF-α concentration by ELISA; format: cell-based, mouse; conditions: 1 or 3 µg/mL 2 h prior to LPS 1 µg/mL for 16 h; n = 6, p < 0.05
Procedure: as §2

[6] = system: NF-κB p65 in LPS-stimulated RAW264.7 cells; test: NF-κB nuclear translocation, immunocytochemistry; format: cell-based, mouse; conditions: pre-treatment 2 h prior to LPS 1 µg/mL for 16 h
Procedure: RAW264.7 cells cultured on round cover slips coated with poly-L-lysine were treated with triterpenoids (1 or 3 µg/mL) 2 h prior to LPS treatment, followed by LPS (1 µg/mL) for 16 h. The cells were washed with 1 x phosphate buffered saline (PBS) and fixed with 4% paraformaldehyde for 30 min. After washing the fixed cells with PBS, the cells were permeabilized with a blocking buffer (1% normal goat serum and 0.2% Triton X-100 in PBS) for 30 min at room temperature, and were incubated with an anti-NF-κB p65 antibody (1:200 dilution, Cell Signaling Technology, Danvers, MA, USA) at 4 °C overnight. After three washes in PBS, the cells were incubated in the dark for 1 h with the mixture of FITC-conjugated anti-rabbit IgG fluorescent secondary antibody diluted at 1:500 in PBS. Finally, the cells were stained with 2 µg/mL Hoechst for nuclei staining. The cells were washed with PBS, wet-mounted on glass slides, and observed using a confocal laser-scanning microscope (Olympus, Tokyo, Japan). The negative control (NC) was analyzed by omitting the primary antibody.

Row | Compound | n (number of binding sites of the enzyme) [1] | Kd [1] [µM] | KSV (Stern-Volmer quenching constant) [1] [L/mol] | LPS-induced iNOS mRNA upregulation [2] | LPS-upregulated IL-1β mRNA level [3] | LPS-upregulated IL-1β concentration [4] | LPS-upregulated TNF-α concentration [5] | NF-κB translocation to the nucleus (immunocytochemical staining) [6]
1 | CC(C)=CCC/C(C)=C/C[C@@H](O)/C(C)=C/CC[C@@]1(C)[C@H](CCCO)/C(=C(/C)C=O)CC[C@]1(C)O [Compound 1, isoiridogermanal] | 1.0039 | 24.3 | 41660 | significantly reduced | noticeably decreased | noticeably decreased | noticeably decreased | suppressed
2 | CC(C)=CCCC(C)=CCC(O)C(C)=CCCC1(C)C(CCCO)C(=C(C)C=O)CCC1(C)O (stereo not shown) [Compound 2, iridobelamal A] | 0.9734 | 50.3 | 18160 | significantly reduced | noticeably decreased | noticeably decreased | noticeably decreased | suppressed
